Assays:
[1] = target: T1, TYK2-JH2 (aa 575-869, in-house) protein (Homo sapiens, UniProt P29597); assay: TYK2-JH2 biochemical assay (HTRF probe displacement); format: binding; conditions: for Selectivity fold (TYK2/JAK1) / IC50: Biochemical assay; for Selectivity fold (TYK2/JAK1): JAK1-JH2 IC50 vs TYK2-JH2 IC50; for IC50: read-out: TYK2-JH2 IC50; for fold less potent (orth vs meta methylsulfonyl; B15 vs B1, B14 vs B5): Tyk2 JH2 bio-chemical potency
T1 construct: TYK2-JH2 (aa 575-869, in-house) protein; made in house
T1 sequence (P29597 575-869): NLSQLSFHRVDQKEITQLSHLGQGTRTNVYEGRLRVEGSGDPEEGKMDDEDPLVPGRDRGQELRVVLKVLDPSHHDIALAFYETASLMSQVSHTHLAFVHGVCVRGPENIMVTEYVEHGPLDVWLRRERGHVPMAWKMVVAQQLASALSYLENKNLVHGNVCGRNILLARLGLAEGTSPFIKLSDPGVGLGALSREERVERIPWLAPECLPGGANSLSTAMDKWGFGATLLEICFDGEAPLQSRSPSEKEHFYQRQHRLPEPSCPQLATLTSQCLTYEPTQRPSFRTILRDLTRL
How it was run: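 Recombinant TYK2-JH2 (0.2 nM) was pre-incubated 0.5 h at room temperature with compounds (10 doses, 5-fold dilution; 500× DMSO stocks from 500 uM) in 20 mM HEPES pH 7.5, 10 mM MgCl2, 0.005% BSA, 2 mM DTT, 0.015% Brij-35. Probe displacement was read by HTRF (ex337, em620/665 nm); IC50 from four-parameter logistic fit.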

[2] = target: T2, JAK1-JH2 protein (aa 561-860, in-house) (Homo sapiens, UniProt P23458); assay: JAK1-JH2 biochemical assay (HTRF probe displacement); format: binding
T2 construct: JAK1-JH2 protein (aa 561-860, in-house); made in house
T2 sequence (P23458 561-860): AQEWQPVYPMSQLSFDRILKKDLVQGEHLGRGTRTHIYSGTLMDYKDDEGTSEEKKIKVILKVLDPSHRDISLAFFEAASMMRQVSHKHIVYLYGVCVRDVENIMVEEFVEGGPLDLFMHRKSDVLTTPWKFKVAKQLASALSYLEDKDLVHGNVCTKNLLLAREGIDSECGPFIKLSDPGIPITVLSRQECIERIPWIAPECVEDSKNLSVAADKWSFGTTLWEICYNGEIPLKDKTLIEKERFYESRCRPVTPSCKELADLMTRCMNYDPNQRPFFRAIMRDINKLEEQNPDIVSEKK
Procedure: Assay B: JAK1-JH2 Biochemical Assay
Compounds disclosed herein were tested for blocking of JAK1-JH2 protein (aa 561-860, in-house) with its probe in an assay based on Homogeneous Time Resolved Fluorescence. Compound dilution is done according to the following protocol: (1) Prepare 500× compounds solution in DMSO from 500 uM by 5-fold dilution, total 10 doses were included; (2) Prepare 10× compounds solution in an assay buffer containing 20 mM HEPES, pH 7.5, 10 mM MgCl2, 0.005% BSA, 2 mM DTT, 0.015% Brij-35 by transferring 1 μl serial 500× stock solution into 49 μl assay buffer. 4 μL of 1.17 nM recombinant JAK1-JH2 protein was pre-incubated with 1 μl of 10× serial dilution of compounds at room temperature for 0.5 hour. […] The HTRF signals (ex337 nm, em620 nm/665 nm) were read on BMG PHERAstar FS instrument. The inhibition percentage of JAK1 interaction with its probe in presence of increasing concentrations of compounds was calculated based on the ratio of fluorescence at 615 nm to that at 665 nm. The IC50 for each compound was derived from fitting the data to the four-parameter logistic equation by Dotmatics.

[3] = tested on: JAK2, TYK2/p-STAT4 (Tyr693) activated by IL-12 in NK-92 cell line; assay: IL-12-JAK2, TYK2/p-STAT4 (Tyr693) inhibition IC50 cellular assay; format: cell-based; conditions: for IC50: NK92, Cellular assay, read-out: pSTAT4/IL-12 IC50; for Selectivity fold (TYK2/JAK2): Cellular assay, pSTAT5/GM-CSF IC50 vs pSTAT4/IL-12 IC50
How it was run: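 NK-92 cells were starved overnight without IL-2 and preincubated 1 h at 37° C with compound (8 doses, 10000–0.61 nM, 4-fold, 0.2% DMSO). They were then stimulated with IL-12 (40 ng/ml final) for 30 min. Lysate p-STAT4 (Tyr693) was read by AlphaLISA SureFire; IC50 from four-parameter logistic fit.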

[4] = tested on: pSTAT5/GM-CSF; assay: pSTAT5/GM-CSF cellular assay (JAK2 selectivity); format: cell-based
[5] = pSTAT5/GM-CSF IC50 over pSTAT4/IL-12 IC50

| SMILES | Selectivity fold (TYK2/JAK1) [1] | IC50 [1] | IC50 [2] | Tyk2 inhibition potency on replacing R methyl (Example B1) by cyclopropane ([1]; compared with Example B1) | fold less potent (orth vs meta methylsulfonyl; B15 vs B1, B14 vs B5) [1] | IC50 [3] | IC50 [4] | Selectivity fold (TYK2/JAK2) [4, 5] | Selectivity fold (TYK2/JAK2) [3] | Selectivity fold (TYK2/JAK2) ([4]; pSTAT5/GM-CSF vs pSTAT4/IL-12) |
| --- | --- | --- | --- | --- | --- | --- | --- | --- | --- | --- |
| CC(=O)Nc1cc(Nc2cccc(S(C)(=O)=O)c2)c(C2CCCO2)cn1 (centres unmarked) [Example A2, N-[4-[(3-methanesulfonylphenyl)amino]-5-(oxolan-2-yl)pyridin-2-yl]acetamide] | 159 fold | 5.2 nM | 828 nM | – | – | – | – | – | – | – |
| CC(=O)Nc1cc(Nc2cccc(S(C)(=O)=O)c2)c(N2CCCC2=O)cn1 [Example A7, N-(4-((3-(methylsulfonyl)phenyl)amino)-5-(2-oxopyrrolidin-1-yl)pyridin-2-yl)acetamide] | >14 fold | 670 nM | > 10000 nM | – | – | – | – | – | – | – |
| CS(=O)(=O)c1cccc(Nc2cc(NC(=O)C3CC3)ncc2-c2ccccn2)c1 [Example B20, N-(4′-((3-(methylsulfonyl)phenyl)amino)-[2,3′-bipyridin]-6′-yl)cyclopropanecarboxamide] | 50 fold | 1.5 nM | 76 nM | dramatically decreased | – | – | – | – | – | – |
| CC(=O)Nc1cc(Nc2ccccc2S(C)(=O)=O)c(-c2ccccn2)cn1 [Example B15, N-(4′-((2-(methylsulfonyl)phenyl)amino)-[2,3′-bipyridin]-6′-yl)acetamide] | 1 fold | 117 nM | 234 nM | – | 3079 fold | – | – | – | – | – |
| CC(=O)Nc1cc(Nc2ncccc2S(C)(=O)=O)c(-c2ccccn2)cn1 [Example B14, N-(4′-((3-(methylsulfonyl)pyridin-2-yl)amino)-[2,3′-bipyridin]-6′-yl)acetamide] | 1 fold | 80 nM | 145 nM | – | 5000 fold | – | – | – | – | – |
| CC(=O)Nc1cc(Nc2ccccc2)c(-c2ccccn2)cn1 [Example B3, N-(4′-(phenylamino)-[2,3′-bipyridin]-6′-yl)acetamide] | 8.1 fold | 1.1 nM | 9 nM | – | – | – | – | – | – | – |
| CC(=O)Nc1cc(Nc2cccc(S(C)(=O)=O)c2)c(-c2cnccn2)cn1 [Example A5, N-(4-((3-(methylsulfonyl)phenyl)amino)-5-(pyrazin-2-yl)pyridin-2-yl)acetamide] | 120 fold | 0.49 nM | 59 nM | – | – | – | – | – | – | – |
| CS(=O)(=O)c1cccc(Nc2cc(N)ncc2-c2ccccn2)c1 [Example B19, N4′-(3-(methylsulfonyl)phenyl)-[2,3′-bipyridine]-4′,6′-diamine] | 14.2 fold | 18 nM | 257 nM | – | – | – | – | – | – | – |
| COCc1cc(Nc2cc(NC(C)=O)ncc2-c2ccn(C)n2)nc(S(C)(=O)=O)c1 [Example J19, N-(4-((4-(methoxymethyl)-6-(methylsulfonyl)pyridin-2-yl)amino)-5-(1-methyl-1H-pyrazol-3-yl)pyridin-2-yl)acetamide] | – | 0.015 nM | – | – | – | 0.882 nM | > 10000 nM | >1137 fold | – | – |
| CC(=O)Nc1cc(Nc2cc(C)cc(S(C)(=O)=O)n2)c(-c2ccc(C(C)(C)N)cn2)cn1 [Example A20, N-(5-(2-aminopropan-2-yl)-4′-((4-methyl-6-(methylsulfonyl)pyridin-2-yl)amino)-[2,3′-bipyridin]-6′-yl)acetamide] | – | 0.03 nM | – | – | – | 1.12 nM | 2380 nM | – | 2124 fold | – |
| COc1ccc(Nc2cc(NC(C)=O)ncc2-c2ccn(C)n2)nc1S(C)(=O)=O [Example J50, N-(4-((5-methoxy-6-(methylsulfonyl)pyridin-2-yl)amino)-5-(1-methyl-1H-pyrazol-3-yl)pyridin-2-yl)acetamide] | – | 0.049 nM | – | – | – | 27.7 nM | > 10000 nM | >361 fold | – | – |
| CC(=O)Nc1cc(Nc2cc(C(F)F)cc(S(C)(=O)=O)n2)c(-c2ccn(C)n2)cn1 [Example J42, N-(4-((4-(difluoromethyl)-6-(methylsulfonyl)pyridin-2-yl)amino)-5-(1-methyl-1H-pyrazol-3-yl)pyridin-2-yl)acetamide] | – | 0.05 nM | – | – | – | 0.796 nM | > 10000 nM | >12562 fold | – | – |
| CC(=O)Nc1cc(Nc2cc(OCC3CC3)cc(S(C)(=O)=O)n2)c(-c2ccn(C)n2)cn1 [Example J3, N-(4-((4-(cyclopropylmethoxy)-6-(methylsulfonyl)pyridin-2-yl)amino)-5-(1-methyl-1H-pyrazol-3-yl)pyridin-2-yl)acetamide] | – | 0.026 nM | – | – | – | 0.286 nM | > 10000 nM | >34965 fold | – | – |
| CC(=O)Nc1cc(Nc2cc(C#N)cc(S(C)(=O)=O)c2)c(-c2ccn(C)n2)cn1 [Example J7, N-(4-((3-cyano-5-(methylsulfonyl)phenyl)amino)-5-(1-methyl-1H-pyrazol-3-yl)pyridin-2-yl)acetamide] | – | 0.19 nM | – | – | – | 66.2 nM | > 10000 nM | >150 fold | – | – |
| CC(=O)Nc1cc(Nc2cc(OCCO)cc(S(C)(=O)=O)n2)c(-c2ccc(OC3CCOC3)cn2)cn1 (centres unmarked) [Example B22, N-(4′-((4-(2-hydroxyethoxy)-6-(methylsulfonyl)pyridin-2-yl)amino)-5-((tetrahydrofuran-3-yl)oxy)-[2,3′-bipyridin]-6′-yl)acetamide] | – | 0.025 nM | – | – | – | 12.6 nM | 2490 nM | – | 197 fold | – |
| CC(=O)Nc1cc(Nc2ccc(C)c(S(C)(=O)=O)n2)c(-c2ccn(C)n2)cn1 [Example J51, N-(5-(1-methyl-1H-pyrazol-3-yl)-4-((5-methyl-6-(methylsulfonyl)pyridin-2-yl)amino)pyridin-2-yl)acetamide] | – | 0.043 nM | – | – | – | 1.58 nM | > 10000 nM | >6329 fold | – | – |
| COCCOc1cc(Nc2cc(NC(C)=O)ncc2-c2ccc(N3CCOCC3=O)cn2)nc(S(C)(=O)=O)c1 [Example G4, N-(4′-((4-(2-methoxyethoxy)-6-(methylsulfonyl)pyridin-2-yl)amino)-5-(3-oxomorpholino)-[2,3′-bipyridin]-6′-yl)acetamide] | – | 0.048 nM | – | – | – | 16 nM | > 10000 nM | – | – | >625 fold |
| COCC1CN(c2ccc(-c3cnc(NC(C)=O)cc3Nc3cc(OC(C)C)cc(S(C)(=O)=O)n3)nc2)CCO1 (centres unmarked) [Example B18, N-(4′-((4-isopropoxy-6-(methylsulfonyl)pyridin-2-yl)amino)-5-(2-(methoxymethyl)morpholino)-[2,3′-bipyridin]-6′-yl)acetamide] | – | 0.036 nM | – | – | – | 1.05 nM | > 10000 nM | – | >9523 fold | – |
| CCn1ccc(-c2cnc(NC(C)=O)cc2Nc2cc(OC(C)C)cc(S(C)(=O)=O)n2)n1 [Example M6, N-(5-(1-ethyl-1H-pyrazol-3-yl)-4-((4-isopropoxy-6-(methylsulfonyl)pyridin-2-yl)amino)pyridin-2-yl)acetamide] | – | 0.032 nM | – | – | – | 1.21 nM | > 10000 nM | >8264 fold | – | – |
| CC(=O)Nc1cc(Nc2cc(S(C)(=O)=O)ccc2C)c(-c2ccc(C(C)(C)O)cn2)cn1 [Example H35, N-(5-(2-hydroxypropan-2-yl)-4′-((2-methyl-5-(methylsulfonyl)phenyl)amino)-[2,3′-bipyridin]-6′-yl)acetamide] | – | 0.028 nM | – | – | – | 3.17 nM | > 10000 nM | – | >3154 fold | – |
| CC(=O)Nc1cc(Nc2cccc(S(C)(=O)=O)n2)c(-c2ccc(C(C)(C)O)cn2)cn1 [Example H5, N-(5-(2-hydroxypropan-2-yl)-4′-((6-(methylsulfonyl)pyridin-2-yl)amino)-[2,3′-bipyridin]-6′-yl)acetamide] | – | 0.015 nM | – | – | – | 0.323 nM | 1680 nM | – | 5185 fold | – |
| CC(=O)Nc1cc(Nc2cccc(S(C)(=O)=O)n2)c(-c2cc(N3CCOCC3)n(C)n2)cn1 [Example O1, N-(5-(1-methyl-5-morpholino-1H-pyrazol-3-yl)-4-((6-(methylsulfonyl)pyridin-2-yl)amino)pyridin-2-yl)acetamide] | – | 0.017 nM | – | – | – | 0.414 nM | 1210 nM | 2929 fold | – | – |

— patent US20240043435A1, “TYK-2 INHIBITOR” (BEIGENE, LTD., priority 2020, published 2024)
